Consider five molecules from PMC8758481, “Astroglial tracer BU99008 detects multiple binding sites in Alzheimer’s disease brain” (Molecular Psychiatry, 2021).

SMILES strings stand for the structures. Read-outs that look alike come from different tables or passages of the source.

Assay [1] deals with imidazoline-2 binding sites (I2BS). Kind of assay: ^3H-BU99008 competition binding assay with unlabelled ligands in temporal cortex brain homogenate. Set-up: species or system human. As to the method: (§1) After 1 h incubation a similar protocol as saturation binding assay was done and the binding was quantified using the scintillation counter.
(§2) The competition binding data was fitted and analysed using non-linear regression competitive-binding function of GraphPad Prism 8.3 software to determine IC50 (half-maximal inhibitory concentration) values.

The subject of assay [2] is imidazoline-2 binding sites (I2BS). Also noted: method as in PMID 29523627, PMID 24711648. The settings on record: rhesus brain, dose-dependent; ref [43], [51]; cited from earlier work.
Assay [3] has as its target T1, monoamine oxidase B (MAO B) (Homo sapiens, UniProt P27338).
T1 construct: from tissue; host or cells: large frozen postmortem human brain sections (control, sporadic AD, AβPParc carrier)
T1 sequence (P27338 1-520): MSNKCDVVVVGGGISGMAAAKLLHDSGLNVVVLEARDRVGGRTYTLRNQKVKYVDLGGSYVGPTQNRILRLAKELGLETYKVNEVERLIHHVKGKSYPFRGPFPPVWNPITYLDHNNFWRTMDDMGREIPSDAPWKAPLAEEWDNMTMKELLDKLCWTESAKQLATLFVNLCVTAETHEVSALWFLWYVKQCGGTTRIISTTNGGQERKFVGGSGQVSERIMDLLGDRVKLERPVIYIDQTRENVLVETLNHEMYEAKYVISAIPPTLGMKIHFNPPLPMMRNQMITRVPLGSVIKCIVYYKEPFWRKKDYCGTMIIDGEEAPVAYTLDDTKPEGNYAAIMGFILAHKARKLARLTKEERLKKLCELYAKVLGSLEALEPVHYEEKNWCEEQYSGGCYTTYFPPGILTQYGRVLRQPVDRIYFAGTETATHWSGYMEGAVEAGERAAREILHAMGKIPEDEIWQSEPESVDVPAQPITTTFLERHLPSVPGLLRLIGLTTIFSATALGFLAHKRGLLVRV
Nature of the assay: ^3H-Deprenyl competition binding assay in temporal cortex brain homogenate. The settings on record: for IC50: vs 10 nM ^3H-Deprenyl, two-site fit. The procedure: as §1, §2

In assay [4] the target is imidazoline-2 binding sites (I2BS). Kind of assay: ^3H-BU99008 competition binding with unlabelled BU99008 in the presence of MAO B inhibitors. Set-up: species or system human. The settings on record: for IC50: unlabelled BU99008 alone. The procedure: A similar protocol as saturation binding assay was performed after 1 h incubation and the binding was quantified using the scintillation counter.
as §2

Assay [5] deals with imidazoline-2 binding sites (I2BS). Also noted: method as in PMID 29523627. The settings on record: human brain, pretreatment, highest dose of 80 mg; ref [43]; cited from earlier work.
Setting [6] is: AD temporal cortex, vs 1 nM ^3H-BU99008, two-site fit, read-out: IC50_1.
Setting [7] is: AD temporal cortex, vs 1 nM ^3H-BU99008, two-site fit, read-out: IC50_2.
Setting [8] is: CN temporal cortex, vs 1 nM ^3H-BU99008, two-site fit, read-out: IC50_1.
Setting [9] is: CN temporal cortex, vs 1 nM ^3H-BU99008, two-site fit, read-out: IC50_2.

Turning to `Cl.c1ccc2oc(C3=NCCN3)cc2c1` [2-BFI, 2-(Benzofuran-2-yl)-2-imidazoline hydrochloride], the IC50 in assay [1] (setting [6]) was determined as 0.041 nM; in assay [1] (setting [7]), 165 nM; in assay [1] (setting [8]) it was 0.34 nM; in assay [1] (setting [9]), 150 nM. In addition, the “proportion of Super high-affinity (SH; 10^-13 to -11 M) binding sites” value (from here on “proportion of Super high-affinity”) in assay [1] (AD, ^3H-BU99008 competition) turned out to be 19%. The “proportion of High-affinity (HA; 10^-10 to -9 M) binding sites” value in assay [1] (CN, ^3H-BU99008 competition) is given as 18%. Besides, in assay [1] (CN, ^3H-BU99008 competition), the “proportion of Low-affinity (LA; 10^-7 to -6 M) binding sites” value (from here on “proportion of Low-affinity”) came to 82%.

`Cl.c1ccc2nc(C3=NCCN3)ccc2c1` [BU224, 2-(4,5-Dihydroimidazol-2-yl)quinoline hydrochloride]: the “^11C-BU99008 signal throughout the brain after pretreatment” value in assay [2] is listed as “significantly reduced”. Besides, the IC50 in assay [1] (AD temporal cortex, vs 1 nM ^3H-BU99008, single binding site, read-out: IC50) stood at 416 nM; in assay [1] (setting [8]), 0.026 nM; in assay [1] (setting [9]), 186 nM. The “proportion of Low-affinity” value in assay [1] (AD, ^3H-BU99008 competition) turned out to be 100%; in assay [1] (CN, ^3H-BU99008 competition) it was 56%. Also, the “proportion of Super high-affinity” value in assay [1] (CN, ^3H-BU99008 competition) is listed as 44%.

For `Cn1c(C2=NCCN2)cc2ccccc21` [BU99008, 2-(4,5-dihydro-1H-imidazol-2-yl)-1-methyl-1H-indole], in assay [3], the “majority of binding to LA sites” value is listed as 70–78%. For the same molecule, the IC50 in assay [3] (AD temporal cortex, read-out: IC50_1) stood at 0.002 nM; in assay [3] (AD temporal cortex, read-out: IC50_2), 254 nM; in assay [3] (CN temporal cortex, read-out: IC50_1) it was 0.72 nM; in assay [3] (CN temporal cortex, read-out: IC50_2), 3110 nM; in assay [1] (setting [6]) it was 1.43 nM; in assay [1] (setting [7]) it was 342 nM. Also, the IC50 in assay [1] (setting [9]) amounted to 2.45 nM; in assay [4] (AD (85 years), one-site, read-out: IC50) it was 1.73 nM; in assay [4] (CN (71 years), vs 1 nM ^3H-BU99008, read-out: IC50_2 (HA)), 2.81 nM. Moreover, the “proportion of High-affinity (HA; 10^-10 to -9 M) binding sites” value in assay [1] (AD, ^3H-BU99008 competition) is 78%; in assay [1] (CN, ^3H-BU99008 competition), 75%. Further, the “proportion of Low-affinity” value in assay [1] (AD, ^3H-BU99008 competition) is 22%. Also, the “proportion of Super high-affinity” value in assay [1] (CN, ^3H-BU99008 competition) was determined as 25%. In addition, the “majority of binding to HA binding sites” value in assay [1] (both CN and AD cases, ^3H-BU99008 competition) was 75–78%.

Turning to `c1ccc2c(c1)OCC(C1=NCCN1)O2` (stereo not drawn) [idazoxan], in assay [5], the “average block of ^11C-BU99008 uptake across all regions” value is listed as 60%.

In the case of `C[C@H](NCc1ccc(OCc2cccc(F)c2)cc1)C(N)=O` [safinamide], the “effect on binding of BU99008 to the SH binding sites” value in assay [4] (CN, ^3H-BU99008 competition) is given as “completely blocked”. For the same molecule, the “decrease in ^3H-BU99008 total binding” value in assay [4] (CN, lower concentration ranges [10^-14-10^-9]) was 15–30%. For the same molecule, in assay [4] (both CN and AD cases, increasing concentrations of inhibitor), the “effect on binding of BU99008 to HA binding sites” value is “not affected”.
